What was measured:
human M4 receptor [1] = target: T1, human M4 receptor (Homo sapiens, UniProt P08173); assay: cAMP assay for M4 positive allosteric modulators (M4 PAM cAMP assay); type: cell-based; design: expressed in transfected cells; host or cells: CHO-K1; settings: Table 1; CHO-K1 cells expressing human M4; forskolin 7.5 μM + acetylcholine EC20 (0.2 nM)
T1 sequence (P08173 1-479): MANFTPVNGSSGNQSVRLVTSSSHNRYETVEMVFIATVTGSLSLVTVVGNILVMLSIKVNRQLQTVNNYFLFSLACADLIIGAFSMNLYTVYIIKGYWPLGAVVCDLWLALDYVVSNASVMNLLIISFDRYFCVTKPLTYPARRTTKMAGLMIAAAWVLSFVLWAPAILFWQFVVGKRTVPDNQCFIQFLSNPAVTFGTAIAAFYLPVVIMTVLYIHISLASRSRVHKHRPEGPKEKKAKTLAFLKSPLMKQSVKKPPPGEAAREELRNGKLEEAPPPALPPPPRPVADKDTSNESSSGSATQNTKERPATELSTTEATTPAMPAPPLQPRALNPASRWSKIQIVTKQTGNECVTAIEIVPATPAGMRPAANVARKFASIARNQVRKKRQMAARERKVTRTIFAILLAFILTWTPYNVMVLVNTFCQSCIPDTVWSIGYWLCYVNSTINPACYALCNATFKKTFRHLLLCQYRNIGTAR
Protocol: The potency of M4 PAMs was determined using a cell-based cyclic adenosine monophosphate assay. The assay was performed with CHO-Kl cells stably expressing untagged human M4 receptor and cAMP was quantified using the Nano-TRF Detection Assay kit (Roche, Cat. No. 05214386) as described in the kit instructions. The cells were grown in Ham's F-12 Nutrient mix supplemented with 10% FBS and 200 μg/ml geneticin until they reached 80% confluency. The cells were washed with PBS, detached with accutase and resuspended in assay buffer consisting of HBSS and 0.1% BSA. They were then seeded in black 384-well plates (Corning, Cat. No. 3764) at a density of 20,000 cells/20 μl per well until the addition of compounds.
Test compounds were serially diluted 1:2 in 100% DMSO and spotted in 384-well plates at 0.5 μl/well. The compounds were then diluted in water containing IBMX (Sigma, Cat. No. 17018) and a sample (5 μl) was added to the cells for 15 minutes at 37° C./5% CO2. After this incubation the cells were stimulated with a combination of forskolin (7.5 μM) and acetylcholine EC20 (0.2 nM) in assay buffer for 30 minutes at 37° C./5% CO2. The assay was stopped by adding cAMP detection mix (15 μl/well, containing detergents for cell lysis) for one hour at RT.
The test plates were read using a SpectraMax i3x reader (Molecular Devices). The exported raw data was used to calculate the FRET signal based on the P-factor as per cAMP kit instructions. The data was normalized to the activity of acetylcholine plus forskolin, with 2 nM of acetylcholine plus 7.5 μM forskolin defined as 100% activity. Dose response curves were fitted to the percent activity data of the compounds using a sigmoidal dose response model (XLfit, IDBS) and the data were reported as EC50 and percent efficacy.

human M4 receptor [2] = target: T1, human M4 receptor; assay: Calcium flux assay using fluorescent imaging (M4 PAM FLIPR assay); type: cell-based; design: expressed in transfected cells; host or cells: CHO (monoclonal line, clone 2); settings: Table 1; CHO cells expressing human M4+Gqi5; acetylcholine EC20
Protocol: CHO cells were transfected with expression plasmid encoding the human M4 receptor and a Gqi5 construct to redirect Gi signaling to calcium. Stable cells were cloned by limiting dilution to yield a monoclonal cell line expressing human M4+Gqi5 (clone 2). The stable cells were grown in DMEM containing 10% FBS, 200 ug/ml Geneticin and 800 ug/ml Hygromycin at 37° C. in a 10% CO2 incubator at 95% humidity.
Calcium Flux Assay Using Fluorescent Imaging (“M4 PAM FLIPR” Assay)
On the afternoon before the assay, cells were plated at a density of 50,000 cells/well into black 96 well plates with clear bottoms to yield a confluent monolayer the next day. Hanks balanced salt solution, without phenol red, containing 20 mM HEPES (pH 7.3) and 2.5 mM probenecid (assay buffer) was prepared fresh for each experiment. Compound dilutions were made using a Beckman Biomek 2000 laboratory automation workstation, in assay buffer. The dye-loading buffer consisted of a final concentration of 2 μM Fluo-4-AM (dissolved in DMSO and pluronic acid) and 65 μg/ml amidoblack in assay buffer. The existing culture media was removed from the wells and 100 μl of the dye-loading buffer was added to each well and incubated for approximately 90 min at 37° C. in a 5% CO2 incubator at 95% humidity.
Calcium flux in the dye-loaded cells was measured with the fluorescence reader Hamamatsu FDSS 7000. To test compounds as agonists, compound addition (25 μl) was made 10 s into the fluorescent measurements and fluorescent response was recorded for 3 minutes. The fluorescence data was expressed as percentage of the fluorescence obtained by an EC100 concentration (3 μM) of the endogenous full agonist acetylcholine. Each test compound concentration-response curve was constructed using a four parameter logistic equation in Microsoft Excel XLFit as follows:
Y=Minimum+((Maximum−Minimum)/(1+10^(LogEC50−X)nH)).
The concentration of agonist that produced a half-maximal response is represented by the EC50 value. Maximum and minimum are the maximum and minimum fluorescence signal in % respectively. nH is the Hill slope.
To measure positive allosteric modulator activity 25 μl of an EC20 concentration of the endogenous agonist acetylcholine is added to the cells already pre-incubated with the test compound for 15 minutes.
The M4 PAM dose response is constructed using the agonist dose-response equation above. The concentration of PAM that produced a half-maximal response is represented by the EC50 value and the maximum signal measured is the PAM efficacy expressed in % of the EC100 (3 μM) acetylcholine response. • cAMP Assay for M4 Positive Allosteric Modulators (“M4 PAM cAMP” Assay)

Row | Compound | EC50 (human M4 receptor [1]) [nM] | EC50 (human M4 receptor [2]) [nM]
1 | Cc1nc2c(c(C)c1Cl)CN(C(=O)[C@@H]1CCN(c3cnc(C#N)cn3)C1)C2 [Example 44, 5-[(3R)-3-(3-chloro-2,4-dimethyl-5,7-dihydropyrrolo[3,4-b]pyridine-6-carbonyl)pyrrolidin-1-yl]pyrazine-2-carbonitrile] | 1280 | 1110
2 | Cc1nc2c(c(C)c1Cl)CN(C(=O)[C@@H]1CCN(c3nccc(C(F)(F)F)n3)C1)C2 [Example 50, (3-chloro-2,4-dimethyl-5,7-dihydropyrrolo[3,4-b]pyridin-6-yl)-[(3R)-1-[4-(trifluoromethyl)pyrimidin-2-yl]pyrrolidin-3-yl]methanone] | 4380 | 1820
3 | COc1cncc(N2CC[C@@H](C(=O)N3Cc4nc(C)c(Cl)c(C)c4C3)C2)n1 [Example 42, (3-chloro-2,4-dimethyl-5,7-dihydropyrrolo[3,4-b]pyridin-6-yl)-[(3R)-1-(6-methoxypyrazin-2-yl)pyrrolidin-3-yl]methanone] | 2080 | 577
4 | Cc1nc2c(c(C)c1Cl)CN(C(=O)[C@@H]1CCN(c3cncc(C(F)(F)F)c3)C1)C2 [Example 14, (3-chloro-2,4-dimethyl-5,7-dihydropyrrolo[3,4-b]pyridin-6-yl)-[(3R)-1-[5-(trifluoromethyl)-3-pyridyl]pyrrolidin-3-yl]methanone] | 2180 | 3520
5 | Cc1nc2c(c(C)c1Cl)CN(C(=O)[C@@H]1CCN(c3cccnn3)C1)C2 [Example 39, (3-chloro-2,4-dimethyl-5,7-dihydropyrrolo[3,4-b]pyridin-6-yl)-[(3R)-1-pyridazin-3-ylpyrrolidin-3-yl]methanone] | 2200 | 2520
6 | Cc1nc2c(c(C)c1Cl)CN(C(=O)[C@@H]1CCN(c3cnc(C(F)(F)F)nc3)C1)C2 [Example 32, (3-chloro-2,4-dimethyl-5,7-dihydropyrrolo[3,4-b]pyridin-6-yl)-[(3R)-1-[2-(trifluoromethyl)pyrimidin-5-yl]pyrrolidin-3-yl]methanone] | 1940 | 1950
7 | Cc1nc2c(c(C)c1Cl)CN(C(=O)[C@@H]1CCN(c3ccc(C(F)(F)F)nn3)C1)C2 [Example 41, (3-chloro-2,4-dimethyl-5,7-dihydropyrrolo[3,4-b]pyridin-6-yl)-[(3R)-1-[6-(trifluoromethyl)pyridazin-3-yl]pyrrolidin-3-yl]methanone] | 5120 | 2010
8 | Cc1ccnc(N2CC[C@@H](C(=O)N3Cc4nc(C)c(Cl)c(C)c4C3)C2)n1 [Example 49, (3-chloro-2,4-dimethyl-5,7-dihydropyrrolo[3,4-b]pyridin-6-yl)-[(3R)-1-(4-methylpyrimidin-2-yl)pyrrolidin-3-yl]methanone] | 3350 | 1670
9 | Cc1nc2c(c(C)c1Cl)CN(C(=O)[C@@H]1CCN(c3ccnc(C4CC4)n3)C1)C2 [Example 6, (3-chloro-2,4-dimethyl-5,7-dihydropyrrolo[3,4-b]pyridin-6-yl)-[(3R)-1-(2-cyclopropylpyrimidin-4-yl)pyrrolidin-3-yl]methanone] | 3780 | 931

More lines, in order of falling EC50 (human M4 receptor [1]), values ahead:

Row | EC50 (human M4 receptor [1]) [nM] | EC50 (human M4 receptor [2]) [nM] | Compound
10 | 1260 | 1300 | Cc1ncccc1N1CC[C@@H](C(=O)N2Cc3nc(C)c(Cl)c(C)c3C2)C1 [Example 12, (3-chloro-2,4-dimethyl-5,7-dihydropyrrolo[3,4-b]pyridin-6-yl)-[(3R)-1-(2-methyl-3-pyridyl)pyrrolidin-3-yl]methanone]
11 | 817 | 1060 | CNc1ncc(N2CC[C@@H](C(=O)N3Cc4nc(C)c(Cl)c(C)c4C3)C2)cn1 [Example 35, (3-chloro-2,4-dimethyl-5,7-dihydropyrrolo[3,4-b]pyridin-6-yl)-[(3R)-1-[2-(methylamino)pyrimidin-5-yl]pyrrolidin-3-yl]methanone]
12 | 814 | 611 | Cc1cnc(N2CC[C@@H](C(=O)N3Cc4nc(C)c(Cl)c(C)c4C3)C2)cn1 [Example 46, (3-chloro-2,4-dimethyl-5,7-dihydropyrrolo[3,4-b]pyridin-6-yl)-[(3R)-1-(5-methylpyrazin-2-yl)pyrrolidin-3-yl]methanone]
13 | 603 | 575 | Cc1nc2c(c(C)c1Cl)CN(C(=O)[C@@H]1CCN(c3cnc(C4COC4)nc3)C1)C2 [Example 34, (3-chloro-2,4-dimethyl-5,7-dihydropyrrolo[3,4-b]pyridin-6-yl)-[(3R)-1-[2-(oxetan-3-yl)pyrimidin-5-yl]pyrrolidin-3-yl]methanone]
14 | 503 | 184 | COCc1nc2c(c(C)c1Cl)CN(C(=O)[C@@H]1CCN(c3cc(C)ncn3)C1)C2 [Example 53, [3-chloro-2-(methoxymethyl)-4-methyl-5,7-dihydropyrrolo[3,4-b]pyridin-6-yl]-[(3R)-1-(6-methylpyrimidin-4-yl)pyrrolidin-3-yl]methanone]
15 | 259 | 350 | Cc1nc2c(c(C)c1Cl)CN(C(=O)[C@@H]1CCN(c3cc(C4CC4)ncn3)C1)C2 [Example 28, (3-chloro-2,4-dimethyl-5,7-dihydropyrrolo[3,4-b]pyridin-6-yl)-[(3R)-1-(6-cyclopropylpyrimidin-4-yl)pyrrolidin-3-yl]methanone]
16 | 230 | 330 | Cc1nc2c(c(C)c1Cl)CN(C(=O)[C@@H]1CCN(c3cc(C(F)(F)F)ncn3)C1)C2 [Example 27, (3-chloro-2,4-dimethyl-5,7-dihydropyrrolo[3,4-b]pyridin-6-yl)-[(3R)-1-[6-(trifluoromethyl)pyrimidin-4-yl]pyrrolidin-3-yl]methanone]
17 | 120 | 166 | Cc1cc(N2CC[C@@H](C(=O)N3Cc4nc(C)c(Cl)c(C)c4C3)C2)ncn1 [Example 26, (3-chloro-2,4-dimethyl-5,7-dihydropyrrolo[3,4-b]pyridin-6-yl)-[(3R)-1-(6-methylpyrimidin-4-yl)pyrrolidin-3-yl]methanone]
18 | 65 | 59 | Cc1nc2c(c(C)c1Cl)CN(C(=O)[C@@H]1CCN(c3cncnc3)C1)C2 [Example 30, (3-chloro-2,4-dimethyl-5,7-dihydropyrrolo[3,4-b]pyridin-6-yl)-[(3R)-1-pyrimidin-5-ylpyrrolidin-3-yl]methanone]

From US20220289746A1, “PYRROLIDINE DERIVATIVES” (Hoffmann-La Roche Inc., priority 2019, published 2022)
